Measured values reported in ChEMBL document CHEMBL3045793, “The synthesis, anti-inflammatory and antimicrobial activity evaluation of novel thioanalogs of 3,4-dihydrothiopyrimidin-2(1H)-one derivatives of N-aryl urea” (2012).
Values after ≈ are worked out from the molar mass of the structure shown. Active and inactive are the calls of the source. The rule behind the calls is not given here.

How the values were obtained:
Aspergillus flavus [1] = assay: Antifungal activity against Aspergillus flavus by agar well diffusion method; type: functional
Fusarium solani [2] = assay: Antifungal activity against Fusarium solani by agar well diffusion method; type: functional
Aspergillus niger [3] = assay: Antifungal activity against Aspergillus niger by agar well diffusion method; type: functional
Candida albicans [4] = assay: Antifungal activity against Candida albicans by agar well diffusion method; type: functional
Escherichia coli [5] = assay: Antibacterial activity against Escherichia coli by agar well diffusion method; type: functional
Salmonella typhimurium [6] = assay: Antibacterial activity against Salmonella enterica subsp. enterica serovar Typhimurium by agar well diffusion method; type: functional
Bacillus subtilis [7] = assay: Antibacterial activity against Bacillus subtilis by agar well diffusion method; type: functional
Staphylococcus aureus [8] = assay: Antibacterial activity against Staphylococcus aureus by agar well diffusion method; type: functional
THP-1 [9] = assay: Anti-inflammatory activity in Homo sapiens (human) THP1 cells assessed as inhibition of LPS-induced IL-6 production preincubated at 10 uM for 30 min before LPS treatment measured after 24 hr by ELISA; type: functional
THP-1 [10] = assay: Anti-inflammatory activity in Homo sapiens (human) THP1 cells assessed as inhibition of LPS-induced TNF-alpha production preincubated at 10 uM for 30 min before LPS treatment measured after 24 hr by ELISA; type: functional
Aspergillus flavus [11] = assay: Antifungal activity against Aspergillus flavus up to 200 ug/ml by agar well diffusion method; type: functional, organism-based
Aspergillus niger [12] = assay: Antifungal activity against Aspergillus niger up to 200 ug/ml by agar well diffusion method; type: functional, organism-based
Salmonella typhimurium [13] = assay: Antibacterial activity against Salmonella enterica subsp. enterica serovar Typhimurium up to 200 ug/ml by agar well diffusion method; type: functional, organism-based
Escherichia coli [14] = assay: Antibacterial activity against Escherichia coli up to 200 ug/ml by agar well diffusion method; type: functional, organism-based
Bacillus subtilis [15] = assay: Antibacterial activity against Bacillus subtilis up to 200 ug/ml by agar well diffusion method; type: functional, organism-based
THP-1 [16] = assay: Anti-inflammatory activity in Homo sapiens (human) THP1 cells assessed as inhibition of LPS-induced IL-6 production preincubated at 1 uM for 30 min before LPS treatment measured after 24 hr by ELISA; type: functional
THP-1 [17] = assay: Anti-inflammatory activity in Homo sapiens (human) THP1 cells assessed as inhibition of LPS-induced TNF-alpha production preincubated at 1 uM for 30 min before LPS treatment measured after 24 hr by ELISA; type: functional
Fusarium solani [18] = assay: Antifungal activity against Fusarium solani up to 200 ug/ml by agar well diffusion method; type: functional, organism-based
Candida albicans [19] = assay: Antifungal activity against Candida albicans up to 200 ug/ml by agar well diffusion method; type: functional, organism-based
Staphylococcus aureus [20] = assay: Antibacterial activity against Staphylococcus aureus up to 200 ug/ml by agar well diffusion method; type: functional, organism-based

Structure (SMILES) | MIC (Aspergillus flavus [1]) [µg/mL] | MIC (Fusarium solani [2]) [µg/mL] | MIC (Aspergillus niger [3]) [µg/mL] | MIC (Candida albicans [4]) [µg/mL] | MIC (Escherichia coli [5]) [µg/mL] | MIC (Salmonella typhimurium [6]) [µg/mL] | MIC (Bacillus subtilis [7]) [µg/mL] | MIC (Staphylococcus aureus [8]) [µg/mL] | inhibition at 10 µM (THP-1 [9]) [%] | inhibition at 10 µM (THP-1 [10]) [%] | Activity (Aspergillus flavus [11]) | Activity (Aspergillus niger [12]) | Activity (Salmonella typhimurium [13]) | Activity (Escherichia coli [14]) | Activity (Bacillus subtilis [15]) | inhibition at 1 µM (THP-1 [16]) [%] | inhibition at 1 µM (THP-1 [17]) [%] | Activity (Fusarium solani [18]) | Activity (Candida albicans [19]) | Activity (Staphylococcus aureus [20])
Clc1ccc(COC(Cn2ccnc2)c2ccc(Cl)cc2Cl)c(Cl)c1 (centres undefined) [MICONAZOLE] | 20 (≈ 48.1 µM) | 15 (≈ 36 µM) | 20 (≈ 48.1 µM) | 25 (≈ 60.1 µM) |  |  |  |  |  |  |  |  |  |  |  |  |  |  |  | 
CCOC(=O)C1=C(C)NC(=S)NC1c1ccc([N+](=O)[O-])cc1 (centres undefined) | 65 (≈ 202 µM) | 75 (≈ 233 µM) | 65 (≈ 202 µM) | 30 (≈ 93.4 µM) | 45 (≈ 140 µM) | 30 (≈ 93.4 µM) | 55 (≈ 171 µM) | 40 (≈ 124 µM) | 3 | 0 |  |  |  |  |  |  |  |  |  | 
CCOC(=O)C1=C(C)NC(=S)NC1c1ccc(NC(=S)Nc2ccc(F)c(C)c2)cc1 (centres undefined) |  | 95 (≈ 207 µM) |  | 95 (≈ 207 µM) |  |  |  | 80 (≈ 174 µM) | 27 | 0 | inactive | inactive | inactive | inactive | inactive |  |  |  |  | 
CCOC(=O)C1=C(C)NC(=S)NC1c1ccc(NC(=S)Nc2ccccc2C(F)(F)F)cc1 (centres undefined) | 20 (≈ 40.4 µM) | 20 (≈ 40.4 µM) | 50 (≈ 101 µM) | 20 (≈ 40.4 µM) | 15 (≈ 30.3 µM) | 40 (≈ 80.9 µM) | 10 (≈ 20.2 µM) | 10 (≈ 20.2 µM) | 18 | 8 |  |  |  |  |  |  |  |  |  | 
O=C(O)c1cn(C2CC2)c2cc(N3CCNCC3)c(F)cc2c1=O [CIPROFLOXACIN] |  |  |  |  | 15 (≈ 45.3 µM) | 25 (≈ 75.4 µM) | 25 (≈ 75.4 µM) |  |  |  |  |  |  |  |  |  |  |  |  | 
CCOC(=O)C1=C(C)NC(=S)NC1c1ccc(NC(=S)Nc2ccc(C(F)(F)F)cc2)cc1 (centres undefined) | 15 (≈ 30.3 µM) | 10 (≈ 20.2 µM) | 10 (≈ 20.2 µM) | 10 (≈ 20.2 µM) | 10 (≈ 20.2 µM) | 30 (≈ 60.7 µM) | 15 (≈ 30.3 µM) | 10 (≈ 20.2 µM) | 48 | 8 |  |  |  |  |  |  |  |  |  | 
CCOC(=O)C1=C(C)NC(=S)NC1c1ccc(NC(=S)Nc2ccccc2F)cc1 (centres undefined) | 15 (≈ 33.7 µM) | 15 (≈ 33.7 µM) | 10 (≈ 22.5 µM) | 10 (≈ 22.5 µM) | 10 (≈ 22.5 µM) | 15 (≈ 33.7 µM) | 25 (≈ 56.2 µM) | 10 (≈ 22.5 µM) | 22 | 0 |  |  |  |  |  |  |  |  |  | 
CCOC(=O)C1=C(C)NC(=S)NC1c1ccc(NC(=S)Nc2ccc(C(F)(F)F)cc2Cl)cc1 (centres undefined) | 60 (≈ 113 µM) | 90 (≈ 170 µM) | 55 (≈ 104 µM) | 50 (≈ 94.5 µM) | 65 (≈ 123 µM) | 55 (≈ 104 µM) | 55 (≈ 104 µM) | 90 (≈ 170 µM) | 68 | 55 |  |  |  |  |  |  |  |  |  | 
C[C@@H]1C[C@H]2[C@@H]3CCC4=CC(=O)C=C[C@]4(C)[C@@]3(F)[C@@H](O)C[C@]2(C)[C@@]1(O)C(=O)CO [DEXAMETHASONE] |  |  |  |  |  |  |  |  |  |  |  |  |  |  |  | 84 | 71 |  |  | 
CCOC(=O)C1=C(C)NC(=S)NC1c1ccc(NC(=S)Nc2cc(F)cc(F)c2)cc1 (centres undefined) |  |  | 85 (≈ 184 µM) |  |  | 90 (≈ 195 µM) | 90 (≈ 195 µM) | 65 (≈ 141 µM) | 82 | 55 | inactive |  |  | inactive |  |  |  | inactive | inactive | 
CCCCc1ccc(NC(=S)Nc2ccc(C3NC(=S)NC(C)=C3C(=O)OCC)cc2)cc1 (centres undefined) |  |  |  |  |  |  |  |  | 8 | 0 | inactive | inactive | inactive | inactive | inactive |  |  | inactive | inactive | inactive
CCOC(=O)C1=C(C)NC(=S)NC1c1ccc(NC(=S)Nc2cc(C(F)(F)F)ccc2Cl)cc1 (centres undefined) |  |  | 90 (≈ 170 µM) | 85 (≈ 161 µM) | 80 (≈ 151 µM) | 90 (≈ 170 µM) | 85 (≈ 161 µM) | 90 (≈ 170 µM) | 96 | 78 | inactive |  |  |  |  |  |  | inactive |  | 
CCOC(=O)C1=C(C)NC(=S)NC1c1ccc(NC(=S)Nc2c(C)cccc2Cl)cc1 (centres undefined) | 60 (≈ 126 µM) | 60 (≈ 126 µM) | 90 (≈ 189 µM) | 65 (≈ 137 µM) | 65 (≈ 137 µM) | 65 (≈ 137 µM) | 80 (≈ 168 µM) | 40 (≈ 84.2 µM) | 55 | 32 |  |  |  |  |  |  |  |  |  | 
